US12552800B2, “Compounds for diagnosis” (AC IMMUNE SA, priority 2020, dated 2026)

Legend:
[1] = PK study in a healthy monkey by PET; format: in vivo, Non-Human Primate (NHP); details: iv, 6.5 mCi
Procedure: Non-Human Primate (NHP) was injected intravenously (iv) with the ^18F-labelled Example-1 [^18F-1] (6.5 mCi) using 1 mL ethanol and 14 mL ascorbate/saline (ascorbate solution was prepared at a concentration of 9.3 mg/mL). Monkey PET scans were performed using a Siemens Focus 220. PET acquisition started immediately before the radioactive dose was injected. Images were generated as dynamic scans for 120 minutes with head focused.

[2] = biological target: T1, PD brain-derived a-syn aggregates (Homo sapiens, UniProt P37840); test: Micro-radiobinding competition assay against [^3H]-a-syn-Ref; format: binding; details: for Competition at 1 μM (%): over [^3H]-a-syn-Ref at 20 nM, example compound at 1 μM
T1 construct: from tissue; host or cells: human PD donor brain, sarkosyl-insoluble 100,000 x g pellet
Procedure: The procedure was adapted from the protocol described in Spillantini et al., 1998. Frozen tissue blocks from PD donors were thawed on ice and homogenized using a glass dounce homogenizer. The homogenate was then centrifuged at 11,000×g (12,700 RPM) in an ultracentrifuge (Beckman, XL100K) for 20 minutes at 4° C. using a pre-cooled 70.1 rotor (Beckman, 342184). Pellets were resuspended in extraction buffer [10 mM Tris-HCl pH 7.4, 10% sucrose, […], 1% protease inhibitor (Calbiochem 539131), 1 mM EGTA, 1% phosphatase inhibitor (Sigma P5726 and P0044)] and centrifuged at 15,000×g (14,800 RPM, a 70.1 Ti rotor) for 20 minutes at 4° C. Pellets were discarded and sarkosyl (20% stock solution, Sigma L7414) was added to the supernatants to a final concentration of 1% at room temperature for one hour. This solution was then centrifuged at 100,000×g (38,000 RPM, 70.1 Ti rotor) for one hour at 4° C. Pellets containing enriched a-syn aggregates were resuspended in PBS and stored at −80° C. until use.
PD brain-derived a-syn aggregates were spotted onto microarray slides. The slides were incubated with the tritiated reference ligand, [^3H]-a-syn-Ref (as described in WO2017/153601) at 20 nM and the example compounds of this invention (non-radiolabelled) either at 1 μM or at increasing concentrations in the range of 50 pM to 2 μM. After incubation, slides were washed and exposed to a phosphor storage screen (GE healthcare, BAS-IP TR 2025). Following exposure, phosphor storage screens were scanned with a laser imaging system (Typhoon FLA 7000) to readout the signal from the radiobinding experiments described above. Quantification of the signal was performed using the ImageJ software package. […] All measurements were performed with at least two technical replicates.
Example compounds were assessed for their potency to compete with the binding of [3H] radiolabelled reference ligand to PD patient brain-derived a-syn aggregates. Results of the micro-radiobinding competition assay for the example compounds tested are shown in Table 5 as: % competition at 1 μM and Ki value. All measurements were performed on the same PD brain-derived a-syn aggregates.

[3] = biological target: T1, PD brain-derived a-syn aggregates; test: Micro-radiobinding competition assay against Example-1 [^3H-1] (Table 8); format: binding; details: human PD brain-derived a-syn aggregates; for Competition at 100 nM (%): 100 nM non-radiolabelled example compound vs Example-1 [^3H-1] ligand; for Competition at 1 μM (%): 1 μM non-radiolabelled example compound vs Example-1 [^3H-1] ligand
Method in brief: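 Human PD brain-derived α-syn aggregates on microarray slides were co-incubated with 6 nM or 20 nM tritiated radioligand and unlabelled compound at 1 μM and 100 nM, some over 0.05 nM–2 μM. Bound signal read by real-time autoradiography; values are % competition, at least two technical replicates, mean of independent experiments.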

[4] = biological target: T1, PD brain-derived a-syn aggregates; test: as above; format: binding; details: competition over Example-1 [^3H-1]
[5] = biological target: T2, Abeta pathological aggregates (Homo sapiens, UniProt P05067); test: Radiobinding competition assay against [^3H]-Abeta-Ref on AD brain homogenates (example compound 1); format: binding
T2 construct: Abeta pathological aggregates present in the human AD brain homogenates; from tissue; host or cells: human AD donor brain, Triton/sucrose-insoluble 100,000 x g pellet
T2 sequence (P05067 672-713 limits assumed): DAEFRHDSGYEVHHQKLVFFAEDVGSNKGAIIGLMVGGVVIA
Procedure: The procedure was adapted from the protocol described in Bagchi et al., 2013. Frozen tissue blocks from AD donors were thawed on ice and homogenized in high salt buffer (50 mM Tris-HCl pH 7.5, 0.75M NaCl, 5 mM EDTA) supplemented with protease inhibitors (Complete; Roche 11697498001) at 4° C. using a glass Dounce homogenizer. The homogenate was centrifuged at 100,000×g (38,000 RPM) in an ultracentrifuge (Beckman, XL100K) for one hour at 4° C. using a pre-cooled 70.1 rotor (Beckman, 342184). Pellets were resuspended in high salt buffer supplemented with 1% Triton X-100 and homogenized at 4° C. using a glass Dounce homogenizer. The homogenates were centrifuged again at 100,000×g (38,000 RPM, 70.1 rotor) for one hour at 4° C. Pellets were resuspended in high salt buffer supplemented with 1% Triton X-100 and 1 M sucrose and homogenized at 4° C. using a glass Dounce homogenizer. The homogenates were centrifuged at 100,000×g (38,000 RPM, 70.1 rotor) for one hour at 4° C. […]
A fixed concentration of AD insoluble fraction was incubated with a tritiated reference Abeta ligand ([^3H]-Abeta-Ref) at 10 nM and increasing concentrations of non-radiolabelled example compound 1 in the range of […] to 2 μM for two hours at RT. […] The filters were analyzed on a Microbeta2 scintillation counter (PerkinElmer). […]

Competition at 100 nM (%) [3] [%]	Competition at 1 μM (%) [3] [%]	Ki [4] [nM]	SMILES	also measured
72	98	7	O=C1c2cn(-c3ccc(N4CC[C@@H](F)C4)nc3)nc2CN1c1ccncc1 [Example 2]	Competition at 1 μM (%) [2]: 68%
87	101	5	O=C1c2cn(-c3ccc(N4CC[C@@H](F)C4)nc3)nc2CN1c1cnccn1 [Example 7]	–
94	103	8	Nc1ccc(N2Cc3nn(-c4ccc(N5CCCC5)nc4)cc3C2=O)cc1F [Example 50]	–
75	91	40	O=C1c2cn(-c3ccc(N4CCCC4)nc3)nc2CN1c1ccncc1F [Example 113]	–

The remaining lines, values behind:

SMILES	Competition at 100 nM (%) [3] [%]	Competition at 1 μM (%) [3] [%]	Ki [4] [nM]	also measured
O=C1c2cn(-c3ccc(N4CC[C@@H]([18F])C4)nc3)nc2CN1c1cccnc1 [Example-1 [^18F-1]]	–	–	–	SUVmax whole brain [1]: 2.0; time of uptake post injection ([1]; whole brain): 3.5 min; washout, peak to half peak ([1]; whole brain): 14 min
O=C1c2cn(-c3ccc(N4CCOCC4)nc3)nc2CN1c1cnc(F)cn1 [Example 142]	92	99	6	–
O=C1c2cn(-c3ccc(N4CC[C@H](F)C4)nc3)nc2CN1c1cccnc1 [Example 3]	45	89	57	–
O=C1c2cn(-c3ccc(N4CC[C@H](F)C4)nc3)nc2CN1c1ccc(F)cc1 [Example 64]	54	95	2	–
O=C1c2cn(-c3ccc(N4CC[C@@H](F)C4)nc3)nc2CN1c1cccnc1 [Example 1]	–	–	–	Ki ([2]; displacement of [^3H]-a-syn-Ref, average of two independent experiments): 30 nM; binding to PD brain-derived a-syn aggregates ([2]; in words): good binding; Competition at 1 μM (%) [2]: 94%; Ki ([5]; displacement of [^3H]-Abeta-Ref at 10 nM, AD brain-derived homogenates): 330 nM; selectivity for a-syn over Abeta pathological aggregates ([5]; in words): good selectivity for a-syn over Abeta
Cn1ccc(-n2cc3c(n2)CN(c2cncc(F)n2)C3=O)n1 [Example 148]	77	91	40	–
O=C1c2cn(-c3ccc(N4CC[C@@H](F)C4)nc3)nc2CN1c1ccc(O)nc1 [Example 81]	56	90	118	–
